17 molecules from patent publication US20190375708A1 (VenatoRx Pharmaceuticals, Inc., priority 2018, published 2019) can be followed below.

SMILES strings stand for the structures.

In data set [1] the test system is HBV replication in HepAD38 cells. The experiment in a line: Anti-HBV replication assay in HepAD38 cells (QPCR of extracellular HBV DNA). In kind it is cell-based, HBV (genotype D, serotype ayw). The note with it: Hepatitis B virus, 168 h, 7 days incubation, extracellular HBV DNA by QPCR, read-out: Anti-HBV EC50. The method, then:
The anti-HBV activity of the Capsid Assembly Modulators (CAMs) was evaluated in a cell based assay utilizing the human hepatoma cell line HepAD38 (Ladner, S K., et al., 1998). HepAD38 cells were derived from the parental line, HepG2, that were stably transfected with a construct containing an HBV genome (genotype D, serotype ayw) under the control of a tetracycline repressible CMV promoter. Upon removal of tetracycline, viral pre-genomic RNA (pgRNA) and mRNAs are expressed and infectious viral particles are assembled and secreted into the culture medium providing a reliable, robust system to measure multiple steps of the HBV life cycle. Disruption of capsid formation results in reduced levels of DNA-containing virus particles that are released into the culture supernatant. To quantify the effect of CAMs on HBV replication, we developed a sensitive QPCR-based assay that measures extracellular HBV DNA levels upon treatment of HepAD38 cells with various concentrations of test compounds.
HepAD38 cells were maintained in DMEM/F12 medium containing 10% FBS, 400 μg/mL G418 and 0.3 μg/mL tetracycline (tet+ media) to maintain repression of HBV replication. To evaluate each compound, HepAD38 cells were seeded into 24-well collagen coated culture plates (Corning BioCoat) at a density of 200,000 cells per well in 1 mL of medium without tetracycline (tet-media) and allowed to adhere overnight at 37° C., 5% CO2 in a humidified incubator. The following day, media was refreshed and a dose range of each compound was prepared by performing 1 log10 serial dilutions in 100% DMSO at 200× the desired assay concentration. Dilutions were then added to the cells resulting in a final dose range of 1 μM to 10 μM and the plates were returned to the incubator. Following 7 days of incubation, culture supernatants were harvested and HBV DNA levels were evaluated by QPCR and compared to the vehicle treated control wells (i.e. DMSO alone).
To quantify HBV DNA levels, cell culture supernatants were diluted 1:10 in sterile, nuclease-free water (Gibco). The diluted supernatants were subsequently added to a PCR master mix containing 1× Roche Light Cycler Master Mix, 0.5 μM forward primer, 0.5 μM reverse primer (Fwd: 5′-[…] (SEQ ID NO 1); Rev: 5′-[…] (SEQ ID NO 2)), 0.2 μM Roche Universal Probe Library Probe 25. The volume was brought to 20 μL with nuclease-free water and amplification of the HBV target sequence was performed using a Roche LightCycler 480 QPCR instrument. PCR extended out to 45 cycles with each cycle consisting of a denaturation step at 95° C. for 10 sec., followed by an annealing step at 60° C. for 10 sec. and a brief extension step at 72° C. for 1 sec.
Extracellular HBV DNA levels, expressed in copies/mL, were determined by comparison to a standard curve (10^2-10^9 copies/mL) using the Roche LightCycler analysis software. These values were subsequently converted to percent inhibition of HBV replication by dividing the HBV DNA levels in the experimental samples with those obtained from the vehicle control (˜1-2×10^5 copies/mL). Potency, expressed as an EC50 (the effective concentration required to inhibit 50% of HBV replication), was calculated from the dose-response curve using a 4-parameter non-linear regression analysis (GraphPad Prism). The nucleoside analog inhibitor entecavir was used as a positive control to validate each assay run. The EC50 value of entecavir in the HepAD38 assay was 0.5 nM, as previously reported in the literature.

A short description of data set [2]: In vitro cytotoxicity assay (MTT cell viability) in HepG2 cells. The following applies: human. In kind it is cell-based, human. Here is the method:
To evaluate antiviral selectivity, the cytotoxic activity of each compound was determined using a standard cell viability assay performed on the parental HepG2 cell line. Cell viability was determined by measuring the conversion of 3-(4,5-dimethylthiazol-2-yl)-2,5-diphenyltetrazolium bromide (MTT) to the insoluble formazan salt crystal that occurs in live cells. Briefly, HepG2 cells were seeded in 96-well plates at a density of 20,000 cells per well in EMEM+10% FBS (complete growth medium) and allowed to adhere overnight in a 37° C., 5% CO2 humidified incubator. The next day, test agents were prepared by performing 8 half-log10 serial dilutions in 100% DMSO at 200× the final desired concentration in the assay. Compounds were tested over a range of concentrations from 30 μM to 1.0 nM in the assay. HepG2 cells were incubated in the presence of various concentrations of CAMs for 7 days in a 37° C., 5% CO2 humidified incubator. At the completion of the 7-day incubation period, MTT reagent was added to each well and the mixture was incubated for an additional 3-4 hours. At the completion of the incubation period, all wells were aspirated to remove the culture medium. The formazan crystals were solubilized from the cell monolayers with 100% DMSO. Plates were briefly mixed on an orbital shaker and absorbance was measured at 492 nm using a Perkin-Elmer EnVision multi-label plate reader. All absorbance values were converted to a percentage of the signal obtained from the vehicle treated controls. Absorbance values at 492 nm are directly proportional to the number of viable cells present in the sample. A CC50 value (cytotoxic concentration that results in loss of 50% cell viability) was calculated from the dose-response curve by 4-parameter, non-linear regression analysis using the GraphPad Prism software. The positive control compound, staurosporine, reduced the viability of HepG2 cells in a dose-dependent manner (CC50=100 nM).

For the molecule `Cc1cc(NC(=O)c2c(C)c(C(=O)C(=O)NC3CCN(c4ccccn4)CC3)n(C)c2C)ccc1F` [Example 657, N-(44-fluoro-3-methylphenyl)-1,2,4-trimethyl-5-(2-oxo-2-((1-(pyridin-2-yl)piperidin-4-yl)amino)acetyl)-1H-pyrrole-3-carboxamide], the EC50 in data set [1] was less than 50 nM. For the same molecule, in data set [2], the CC50 at 7 days was in the range of 5000 to 30000 nM.
In the same order, the values of `Cc1cc(NC(=O)c2c(C)c(C(=O)C(=O)N[C@@H]3CCC[C@H]3O)n(C)c2C)cnc1F` [Example 132, N-(6-fluoro-5-methylpyridin-3-yl)-5-(2-(((1R,2R)-2-hydroxycyclopentyl)amino)-2-oxoacetyl)-1,2,4-trimethyl-1H-pyrrole-3-carboxamide] are 50 to 499 nM and greater than 30000 nM.
In the case of `Cc1cc(NC(=O)c2c(C)c(C(=O)C(=O)N[C@@H]3CCCNC3=O)n(C)c2C)ccc1F` [Example 673, (R)-N-(4-fluoro-3-methylphenyl)-1,2,4-trimethyl-5-(2-oxo-2-((2-oxopiperidin-3-yl)amino)acetyl)-1H-pyrrole-3-carboxamide], the EC50 in data set [1] was less than 50 nM. The molecule also gave a cytotoxic concentration (CC50) at 7 days in data set [2] greater than 30000 nM.
The matching figures for `Cc1cc(NC(=O)c2c(C)c(C(=O)C(=O)NC3(C(N)=O)CCCC3)n(C)c2C)ccc1F` [Example 38, 5-(2-((1-carbamoylcyclopentyl)amino)-2-oxoacetyl)-N-(4-fluoro-3-methylphenyl)-1,2,4-trimethyl-1H-pyrrole-3-carboxamide]: less than 50 nM and greater than 30000 nM.
In the same order, the values of `CC[C@H](CO)NC(=O)C(=O)c1c(C)c(C(=O)Nc2ccc(F)c(C)c2)c(C)n1C` [Example 140, (R)-N-(4-fluoro-3-methylphenyl)-5-(2-((1-hydroxybutan-2-yl)amino)-2-oxoacetyl)-1,2,4-trimethyl-1H-pyrrole-3-carboxamide] are less than 50 nM and greater than 30000 nM.
In the same order, the values of `Cc1cc(NC(=O)c2c(C)c(C(=O)C(=O)NC3(c4nc(-c5cnccn5)no4)CCCCC3)n(C)c2C)ccc1F` [Example 631, N-(4-fluoro-3-methylphenyl)-1,2,4-trimethyl-5-(2-oxo-2-((1-(3-(pyrazin-2-yl)-1,2,4-oxadiazol-5-yl)cyclohexyl)amino)acetyl)-1H-pyrrole-3-carboxamide] are less than 50 nM and greater than 30000 nM.
In the case of `Cc1cc(NC(=O)c2cc(C(=O)C(=O)N[C@H](CO)[C@@H](C)O)n3c2CCCC3)ccc1F` [Example 433, 3-(2-(((2R,3R)-1,3-dihydroxybutan-2-yl)amino)-2-oxoacetyl)-N-(4-fluoro-3-methylphenyl)-5,6,7,8-tetrahydroindolizine-1-carboxamide], the concentration giving a half-maximal response (EC50) in data set [1] lay within 500 to 1000 nM. The CC50 at 7 days in data set [2] is greater than 30000 nM.
For `Cc1cc(NC(=O)c2c(C)c(C(=O)C(=O)NC34CC5CC(C3)C(O)C(C5)C4)n(C)c2C)ccc1F` [Example 59, N-(4-fluoro-3-methylphenyl)-5-(2-(((1s,3R,4s,5S,7s)-4-hydroxyadamantan-1-yl)amino)-2-oxoacetyl)-1,2,4-trimethyl-1H-pyrrole-3-carboxamide], the EC50 in data set [1] was less than 50 nM. For the same molecule, in data set [2], the 50% cytotoxic concentration (CC50) at 7 days is greater than 30000 nM.
On to `Cc1c(C(=O)Nc2cccc(C(F)F)c2)c(C)n(C)c1C(=O)C(=O)N[C@H]1CC[C@H](O)CC1` [Example 697, N-(3-(difluoromethyl)phenyl)-5-(2-(((1r,4r)-4-hydroxycyclohexyl)amino)-2-oxoacetyl)-1,2,4-trimethyl-1H-pyrrole-3-carboxamide], for which the EC50 in data set [1] was less than 50 nM. Besides, the cytotoxic concentration (CC50) at 7 days in data set [2] was greater than 30000 nM.
In the same order, the values of `Cc1noc([C@H](C)NC(=O)C(=O)c2c(Cl)c(C(=O)Nc3ccc(F)c(C)c3)c3n2CCC3)n1` [Example 545, (S)-6-chloro-N-(4-fluoro-3-methylphenyl)-5-(2-((1-(3-methyl-1,2,4-oxadiazol-5-yl)ethyl)amino)-2-oxoacetyl)-2,3-dihydro-1H-pyrrolizine-7-carboxamide] are less than 50 nM and 5000 to 30000 nM.
In the same order, the values of `O=C(N[C@H]1CCC[C@H]1O)C(=O)c1c(Cl)c(C(=O)Nc2ccc(F)c(F)c2)c2n1CCCC2` [Example 519, 2-chloro-N-(3,4-difluorophenyl)-3-(2-(((1S,2R)-2-hydroxycyclopentyl)amino)-2-oxoacetyl)-5,6,7,8-tetrahydroindoliznie-1-carboxamide] are 50 to 499 nM and 5000 to 30000 nM.
`Cc1cc(NC(=O)c2c(C)c(C(=O)C(=O)Nc3ccc(F)c(F)c3)n(C)c2C)cnc1F` [Example 341, 5-(2-((3,4-difluorophenyl)amino)-2-oxoacetyl)-N-(5-fluoro-5-methylpyridin-3-yl)-1,2,4-trimethyl-1H-pyrrole-3-carboxamide]: in data set [1], the EC50 fell in the range of 50 to 499 nM. The molecule also returned a CC50 at 7 days in data set [2] greater than 30000 nM.
As to `Cc1cc(NC(=O)c2c(C)c(C(=O)C(=O)N[C@H](C(=O)O)C(C)C)n(C)c2C)ccc1F` [Example 100, (2-(4-((4-fluoro-3-methylphenyl)carbamoyl)-1,3,5-trimethyl-1H-pyrrol-2-yl)-2-oxoacetyl)-L-valine], the 50% effective concentration (EC50) in data set [1] is greater than 1000 nM. In data set [2], this molecule had a 50% cytotoxic concentration (CC50) at 7 days of 5000 to 30000 nM.
In the same order, the values of `Cc1noc([C@@H](C)NC(=O)C(=O)c2c(Cl)c(C(=O)Nc3cnc(F)c(C)c3)c3n2CCC3)n1` [Example 735, (R)-6-chloro-N-(6-fluoro-5-methylpyridin-3-yl)-5-(2-((1-(3-methyl-1,2,4-oxxadiazol-5-yl)ethyl)amino)-2-oxoacetyl)-2,3-dihydro-1H-pyrrolizine-7-carboxamide] are 50 to 499 nM and 5000 to 30000 nM.
In the same order, the values of `Cc1cc(NC(=O)c2cc(C(=O)C(=O)NC(C)(C)CO)n3c2CCCC3)cc(F)c1F` [Example 425, N-(3,4-difluoro-5-methylphenyl)-3-(2-((1-hydroxy-2-methylpropan-2-yl)amino)-2-oxoacetyl)-5,6,7,8-tetrahydroindolizine-1-carboxamide] are 50 to 499 nM and greater than 30000 nM.
The matching figures for `Cc1cc(NC(=O)c2c(C)c(C(=O)C(=O)NC3COCCOC3)n(C)c2C)ccc1F` [Example 714, 5-(2-((1,4-dioxepan-6-yl)amino)-2-oxoacetyl)-N-(4-fluoro-3-methylphenyl)-1,2,4-trimethyl-1H-pyrrole-3-carboxamide]: less than 50 nM and greater than 30000 nM.
For `Cc1c(C(=O)Nc2cccc(Cl)c2)c(C)n(C)c1C(=O)C(=O)N[C@H]1CC[C@@H](O)CC1` [Example 602, N-(3-chlorophenyl)-5-(2-(((1s,4s)-4-hydroxycyclohexyl)amino)-2-oxoacetyl)-1,2,4-trimethyl-1H-pyrrole-3-carboxamide], in data set [1], the EC50 is less than 50 nM. In data set [2], this molecule yielded a cytotoxic concentration (CC50) at 7 days greater than 30000 nM.
